Columns and labels:
[1] = Residual post-illumination amotosalen by LED wavelength in bacteria-spiked plasma, HPLC; details: for Pre-UV S-59 / Post-UV S-59: S. epidermidis plasma, 15 μM arm; for Pre-UV S-59: pre-illumination; for Post-UV S-59: ~3 J/cm^2
[2] = S-59 photoconversion in E. coli-spiked plasma, HPLC; assay type: physicochemical
Method: Bacterial titer results pre- and post-UVA treatment are shown in the following Table 4, along with the levels of bacterial inactivation obtained (log reduction). Additionally, the efficiency of photoconversion of amotosalen (S-59) was also determined and shown as percent remaining S-59 after each indicated treatment condition. LOQ represents the limit of quantification. Bacterial titers were analyzed pre- and post-UVA treatment to determine bacterial inactivation levels, which are shown as log reduction in the following Table 5. Additionally, S-59 photoconversion was also determined by HPLC and shown as both absolute concentration and percent remaining after each indicated treatment condition.

E. coli = assay: Amotosalen and UV light (265-385 nm LEDs) treatment of E. coli in plasma, six-well plates, colony forming unit assay; assay type: cell-based; details: for Log reduction from S-59 / Log reduction total: ~3 J/cm^2, plasma
Description: (§1) This system comprised single arrays facing (e.g., opposing) a platform positioned for the illumination of biological fluids placed on the platform (see e.g., FIG. 5). System controls provided for adjustment of the LEDs during treatment of the biological fluid samples, controlling both the timing and intensity of illumination by the LEDs to achieve a desired light UV light dose. Evaluation of photochemical conversion, photoproduct formation, pathogen inactivation, and plasma and/or platelet quality parameters are performed for each light source wavelength as described previously. In one study using the device, photochemical inactivation of various bacteria were tested for each of the above-referenced LEDs together with amotosalen. The bacteria included E. coli (Gram negative), S. epidermidis (Gram positive), and P. acnes (anaerobe). As there are known germicidal effects of ultraviolet light with wavelengths in the UVC and UVB range, the study was controlled to determine for each LED wavelength the total inactivation levels, as well as inactivation levels specifically resulting from the UV light (without added amotosalen) or the photochemical treatment process itself.

S. epidermidis = assay: Amotosalen and UV light (265-385 nm LEDs) treatment of S. epidermidis in plasma, colony forming unit assay; assay type: cell-based; details: 15 μM amotosalen, ~3 J/cm^2, plasma
Description: as §1

[3] = 340 nm, 220 mL plasma, 15 μM, ~6.4 J/cm^2
[4] = 340 nm, 350 mL plasma, 15 μM, ~6.4 J/cm^2
[5] = INT-100, 220 mL plasma, 15 μM, ~6.4 J/cm^2
[6] = INT-100, 350 mL plasma, 15 μM, ~6.4 J/cm^2

Compound: Cc1oc2c(C)c3oc(=O)cc(C)c3cc2c1COCCN [S-59, 3-(2-aminoethoxymethyl)-2,5,9-trimethylfuro[3,2-g]chromen-7-one]
- Pre-UV S-59 ([1]; 340 nm arm): 14.8 µM
- Post-UV S-59 ([1]; 340 nm): 3.6 µM
- Pre-UV S-59 ([1]; 365 nm arm): 14.8 µM
- Post-UV S-59 ([1]; 365 nm): 7.8 µM
- Pre-UV S-59 ([1]; 385 nm arm): 15.0 µM
- Post-UV S-59 ([1]; 385 nm): 15.1 µM
- residual amotosalen ([1]; amotosalen+325 nm and amotosalen+340 nm illumination): less than 5 μM
- % S-59 remaining ([2]; 340 nm, 1.5 μM, ~3 J/cm^2): 9.0%
- % S-59 remaining ([2]; 340 nm, 1.5 μM, ~6 J/cm^2): <LOQ
- % S-59 remaining ([2]; 340 nm, 1.5 μM, ~9 J/cm^2): <LOQ
- % S-59 remaining ([2]; 340 nm, 15 μM, ~3 J/cm^2): 13.5%
- % S-59 remaining ([2]; 340 nm, 15 μM, ~6 J/cm^2): 2.5%
- % S-59 remaining ([2]; 340 nm, 15 μM, ~9 J/cm^2): <LOQ
- % S-59 remaining ([2]; 340 nm, 150 μM, ~3 J/cm^2): 39.9%
- % S-59 remaining [2, 3]: 3.0%
- S-59 Remaining [2, 3]: 0.5 µM
- % S-59 remaining [2, 4]: 8.0%
- S-59 Remaining [2, 4]: 1.1 µM
- % S-59 remaining ([2]; INT-100, 15 μM, ~3 J/cm^2): 40.5%
- % S-59 remaining ([2]; INT-100, 150 μM, ~3 J/cm^2): 63.0%
- % S-59 remaining [2, 5]: 26.0%
- S-59 Remaining [2, 5]: 4.0 µM
- % S-59 remaining [2, 6]: 37.0%
- S-59 Remaining [2, 6]: 5.5 µM
- Log reduction from S-59 (E. coli; 15 μM amotosalen, 265 nm): 0 log
- Log reduction total (E. coli; 15 μM amotosalen, 265 nm): 4.52 log
- Log reduction from S-59 (E. coli; 15 μM amotosalen, 280 nm): 0 log
- Log reduction total (E. coli; 15 μM amotosalen, 280 nm): 4.52 log
- Log reduction from S-59 (E. coli; 15 μM amotosalen, 310 nm): 1.15 log
- Log reduction total (E. coli; 15 μM amotosalen, 310 nm): 4.52 log
- Log reduction from S-59 (E. coli; 15 μM amotosalen, 325 nm): 3.81 log
- Log reduction total (E. coli; 15 μM amotosalen, 325 nm): 4.52 log
- Log reduction from S-59 (E. coli; 15 μM amotosalen, 340 nm): 2.94 log
- Log reduction total (E. coli; 15 μM amotosalen, 340 nm): 4.52 log
- Log reduction from S-59 (E. coli; 15 μM amotosalen, 365 nm): 2.76 log
- Log reduction total (E. coli; 15 μM amotosalen, 365 nm): 4.52 log
- Log reduction from S-59 (E. coli; 15 μM amotosalen, 385 nm): 0.49 log
- Log reduction total (E. coli; 15 μM amotosalen, 385 nm): 1.5 log
- Log reduction from S-59 (E. coli; 150 μM amotosalen, 265 nm): 0.54 log
- Log reduction total (E. coli; 150 μM amotosalen, 265 nm): 5.01 log
- Log reduction from S-59 (E. coli; 150 μM amotosalen, 280 nm): 0.59 log
- Log reduction total (E. coli; 150 μM amotosalen, 280 nm): 5.38 log
- Log reduction from S-59 (E. coli; 150 μM amotosalen, 310 nm): 2.29 log
- Log reduction total (E. coli; 150 μM amotosalen, 310 nm): 6.23 log
- Log reduction from S-59 (E. coli; 150 μM amotosalen, 325 nm): 5.36 log
- Log reduction total (E. coli; 150 μM amotosalen, 325 nm): 5.70 log
- Log reduction from S-59 (E. coli; 150 μM amotosalen, 340 nm): 4.93 log
- Log reduction total (E. coli; 150 μM amotosalen, 340 nm): 5.64 log
- Log reduction from S-59 (E. coli; 150 μM amotosalen, 365 nm): 4.90 log
- Log reduction total (E. coli; 150 μM amotosalen, 365 nm): 5.30 log
- Log reduction from S-59 (E. coli; 150 μM amotosalen, 385 nm): 4.34 log
- Log reduction total (E. coli; 150 μM amotosalen, 385 nm): 4.95 log
- photochemical inactivation (E. coli; summary for bacteria of Example 8, amotosalen+325 nm and amotosalen+340 nm illumination): greater than 4 logs
- Log reduction from S-59 (S. epidermidis; 265 nm): 0.89 log
- Log reduction total (S. epidermidis; 265 nm): 5.23 log
- Log reduction from S-59 (S. epidermidis; 280 nm): 1.56 log
- Log reduction total (S. epidermidis; 280 nm): 5.02 log
- Log reduction from S-59 (S. epidermidis; 310 nm): 6.68 log
- Log reduction total (S. epidermidis; 310 nm): 7.19 log
- Log reduction from S-59 (S. epidermidis; 325 nm): 7.17 log
- Log reduction total (S. epidermidis; 325 nm): 7.18 log
- Log reduction from S-59 (S. epidermidis; 340 nm): 7.18 log
- Log reduction total (S. epidermidis; 340 nm): 7.28 log
- Log reduction from S-59 (S. epidermidis; 365 nm): 7.32 log
- Log reduction total (S. epidermidis; 365 nm): 7.26 log
- Log reduction from S-59 (S. epidermidis; 385 nm): 1.85 log
- Log reduction total (S. epidermidis; 385 nm): 1.76 log

Source: patent US12214092B2, “Systems and methods for treating biological fluids” (Cerus Corporation, priority 2017, dated 2025)
